Several values for one entry are separate records, joined by “and”; a condition that tells them apart may be missing. Identical values can stand only once. Toxic doses and inconclusive results are not listed.
System: nude mice, LOX melanoma ip, survival T/C
Test: NCI In Vivo Anticancer Drug Screen. Data for tumor model Human Amelanotic Melanoma (LOX) (intraperitoneal) in NU/NU BALB/C (nude) mice
Conditions: endpoint: median survival time, higher = longer survival
Protocol: The antitumor activity of compounds was measured in mice bearing transplantable tumors. Survival or tumor size were measured and the results are expressed as the measurement made in the treated group (T) divided by the measurement made in the vehicle treated control group (C). The tumor model used in this assay is Human Amelanotic Melanoma (LOX) (intraperitoneal) in NU/NU BALB/C (nude) mice

[1] = dose: 50.0 mg/kg/injection, schedule: Q04DX003 (ip), vehicle: Klucel (hydroxypropylcellulose) (HPC)
[2] = dose: 100.0 mg/kg/injection, schedule: Q04DX003 (ip), vehicle: Klucel (hydroxypropylcellulose) (HPC)
[3] = dose: 200.0 mg/kg/injection, schedule: Q04DX003 (ip), vehicle: Klucel (hydroxypropylcellulose) (HPC)
[4] = dose: 400.0 mg/kg/injection, schedule: Q04DX003 (ip), vehicle: Klucel (hydroxypropylcellulose) (HPC)

Cc1ccccc1N=C(c1ccccc1)C1C(=O)c2ccccc2C1=O
T/C (dose: 75.0 mg/kg/injection, schedule: Q04DX003 (ip), vehicle: DMSO): 101 % of control | T/C (dose: 75.0 mg/kg/injection, schedule: Q04DX003 (ip), vehicle: other): 105 % of control | T/C (dose: 150.0 mg/kg/injection, schedule: Q04DX003 (ip), vehicle: DMSO): 109 % of control | T/C (dose: 150.0 mg/kg/injection, schedule: Q04DX003 (ip), vehicle: other): 93 % of control | T/C (dose: 300.0 mg/kg/injection, schedule: Q04DX003 (ip), vehicle: DMSO): 101 % of control | T/C (dose: 300.0 mg/kg/injection, schedule: Q04DX003 (ip), vehicle: other): 103 % of control | T/C (dose: 600.0 mg/kg/injection, schedule: Q04DX003 (ip), vehicle: DMSO): 103 % of control | T/C (dose: 600.0 mg/kg/injection, schedule: Q04DX003 (ip), vehicle: other): 103 % of control | T/C (dose: 1200.0 mg/kg/injection, schedule: Q04DX003 (ip), vehicle: DMSO): 99 % of control | T/C (dose: 1200.0 mg/kg/injection, schedule: Q04DX003 (ip), vehicle: other): 102 % of control

CN1C2C=CC(=O)C1C1C(=O)N(c3ccccc3)C(=O)C12 (stereo not drawn)
T/C [1]: 100 % of control | T/C [2]: 96 % of control | T/C [3]: 99 % of control | T/C [4]: 100 % of control

CCC(=O)Sc1ccccc1C(=O)Nc1ccc(Cl)cc1
T/C (dose: 25.0 mg/kg/injection, schedule: Q04DX003 (ip), vehicle: saline with Tween-80): 99 % of control | T/C (dose: 50.0 mg/kg/injection, schedule: Q04DX003 (ip), vehicle: saline with Tween-80): 107 % of control | T/C (dose: 100.0 mg/kg/injection, schedule: Q04DX003 (ip), vehicle: saline with Tween-80): 110 % of control | T/C (dose: 200.0 mg/kg/injection, schedule: Q04DX003 (ip), vehicle: saline with Tween-80): 113 % of control

Cc1cc(O)c2c(c1O)C(=O)C13C(=C2O)C(=O)C2C(O)C1C1C(O)C3C(=O)C3=C(O)c4c(O)cc(C)c(O)c4C(=O)C321 (stereo not drawn)
T/C (dose: 6.25 mg/kg/injection, schedule: Q04DX003 (ip), vehicle: saline with Tween-80): 114 % of control

COc1cc2c(cc1OC)-c1c3c(cc4c1[C@@H](C2)N(C)CC4)OCO3
T/C (dose: 32.0 mg/kg/injection, schedule: Q04DX003 (ip), vehicle: distilled water + Tween-80 + alcohol): 115 % of control | T/C (dose: 90.0 mg/kg/injection, schedule: Q04DX003 (ip), vehicle: distilled water + Tween-80 + alcohol): 109 % of control | T/C (dose: 150.0 mg/kg/injection, schedule: Q04DX003 (ip), vehicle: distilled water + Tween-80 + alcohol): 123 % of control

CN=C(NC)c1ccc(NC(=O)/C=C\c2ccc(/C=C/C(=O)Nc3ccc(C(=NC)NC)cc3)cc2)cc1
T/C (dose: 0.78 mg/kg/injection, schedule: Q04DX003 (ip), vehicle: Klucel (hydroxypropylcellulose) (HPC)): 104 % of control | T/C (dose: 1.56 mg/kg/injection, schedule: Q04DX003 (ip), vehicle: Klucel (hydroxypropylcellulose) (HPC)): 109 % of control | T/C (dose: 2.0 mg/kg/injection, schedule: Q04DX003 (ip), vehicle: Klucel (hydroxypropylcellulose) (HPC)): 90 % of control | T/C (dose: 2.25 mg/kg/injection, schedule: Q04DX003 (ip), vehicle: Klucel (hydroxypropylcellulose) (HPC)): 101 % of control | T/C (dose: 3.75 mg/kg/injection, schedule: Q04DX003 (ip), vehicle: Klucel (hydroxypropylcellulose) (HPC)): 87 % of control | T/C (dose: 4.0 mg/kg/injection, schedule: Q04DX003 (ip), vehicle: Klucel (hydroxypropylcellulose) (HPC)): 105 % of control | T/C (dose: 6.0 mg/kg/injection, schedule: Q04DX003 (ip), vehicle: Klucel (hydroxypropylcellulose) (HPC)): 111 % of control | T/C (dose: 10.0 mg/kg/injection, schedule: Q04DX003 (ip), vehicle: Klucel (hydroxypropylcellulose) (HPC)): 105 % of control | T/C (dose: 11.0 mg/kg/injection, schedule: Q04DX003 (ip), vehicle: Klucel (hydroxypropylcellulose) (HPC)): 98 % of control | T/C (dose: 12.5 mg/kg/injection, schedule: Q04DX003 (ip), vehicle: Klucel (hydroxypropylcellulose) (HPC)): 109 % of control | T/C (dose: 17.0 mg/kg/injection, schedule: Q04DX003 (ip), vehicle: Klucel (hydroxypropylcellulose) (HPC)): 90 % of control | T/C (dose: 18.0 mg/kg/injection, schedule: Q04DX003 (ip), vehicle: Klucel (hydroxypropylcellulose) (HPC)): 95 % of control

O=C(NC(Cc1ccc(I)cc1)C(=O)O)c1cccc(Br)c1 (stereo not drawn)
T/C [1]: 112 % of control | T/C (dose: 75.0 mg/kg/injection, schedule: Q04DX003 (ip), vehicle: Klucel (hydroxypropylcellulose) (HPC)): 105 % of control | T/C [2]: 112 % of control | T/C (dose: 150.0 mg/kg/injection, schedule: Q04DX003 (ip), vehicle: Klucel (hydroxypropylcellulose) (HPC)): 89 % of control | T/C [3]: 103 % of control | T/C (dose: 300.0 mg/kg/injection, schedule: Q04DX003 (ip), vehicle: Klucel (hydroxypropylcellulose) (HPC)): 96 % of control | T/C [4]: 87 % of control

CN(Cc1cnc2nc(N)nc(N)c2n1)c1ccc(C(=O)N[C@@H](CCC(=O)O)C(=O)O)cc1
T/C (dose: 0.38 mg/kg/injection, schedule: Q01DX015 (ip), vehicle: sodium bicarbonate): 90 % of control | T/C (dose: 0.75 mg/kg/injection, schedule: Q01DX005 (ip), vehicle: sodium bicarbonate): 90 % of control | T/C (dose: 1.5 mg/kg/injection, schedule: Q01DX005 (ip), vehicle: sodium bicarbonate): 113 % of control | T/C (dose: 1.5 mg/kg/injection, schedule: Q01DX015 (ip), vehicle: sodium bicarbonate): 95 % of control | T/C (dose: 3.0 mg/kg/injection, schedule: Q01DX005 (ip), vehicle: sodium bicarbonate): 112 % of control | T/C (dose: 3.0 mg/kg/injection, schedule: Q01DX015 (ip), vehicle: sodium bicarbonate): 102 % of control | T/C (dose: 6.0 mg/kg/injection, schedule: Q01DX005 (ip), vehicle: sodium bicarbonate): 112 % of control | T/C (dose: 10.0 mg/kg/injection, schedule: Q04DX003 (ip), vehicle: sodium bicarbonate): 107 % of control | T/C (dose: 12.0 mg/kg/injection, schedule: Q01DX005 (ip), vehicle: sodium bicarbonate): 107 % of control | T/C (dose: 12.0 mg/kg/injection, schedule: Q04DX003 (ip), vehicle: sodium bicarbonate): 105 % of control and 112 % of control | T/C (dose: 18.0 mg/kg/injection, schedule: Q04DX003 (ip), vehicle: sodium bicarbonate): 103 % of control and 101 % of control | T/C (dose: 20.0 mg/kg/injection, schedule: Q04DX003 (ip), vehicle: sodium bicarbonate): 102 % of control | T/C (dose: 25.0 mg/kg/injection, schedule: Q01DX001 (ip), vehicle: sodium bicarbonate): 107 % of control | T/C (dose: 27.0 mg/kg/injection, schedule: Q04DX003 (ip), vehicle: sodium bicarbonate): 105 % of control and 112 % of control | T/C (dose: 40.0 mg/kg/injection, schedule: Q04DX003 (ip), vehicle: sodium bicarbonate): 113 % of control | T/C (dose: 50.0 mg/kg/injection, schedule: Q01DX001 (ip), vehicle: sodium bicarbonate): 106 % of control | T/C (dose: 100.0 mg/kg/injection, schedule: Q01DX001 (ip), vehicle: sodium bicarbonate): 103 % of control | T/C (dose: 200.0 mg/kg/injection, schedule: Q01DX001 (ip), vehicle: sodium bicarbonate): 121 % of control

CC1=C[P+](c2ccccc2)(c2ccccc2)C=C(c2ccccc2)O1
T/C (dose: 0.38 mg/kg/injection, schedule: Q04DX003 (ip), vehicle: saline): 97 % of control | T/C (dose: 3.0 mg/kg/injection, schedule: Q04DX003 (ip), vehicle: saline): 88 % of control

COc1cccc2c1C(=O)c1c(O)c3c(c(O)c1C2=O)C[C@](O)(C(=O)CO)CC3OC1CC(N)C(OC2CCCCO2)C(C)O1 (stereo partly drawn)
T/C (dose: 0.94 mg/kg/injection, schedule: Q04DX003 (ip), vehicle: water): 122 % of control | T/C (dose: 7.5 mg/kg/injection, schedule: Q04DX003 (ip), vehicle: water): 160 % of control | T/C (dose: 15.0 mg/kg/injection, schedule: Q04DX003 (ip), vehicle: water): 150 % of control

CC#CCOCC(O)CCl (stereo not drawn)
T/C (dose: 37.5 mg/kg/injection, schedule: Q04DX003 (ip), vehicle: saline): 97 % of control | T/C (dose: 75.0 mg/kg/injection, schedule: Q04DX003 (ip), vehicle: saline): 99 % of control | T/C (dose: 150.0 mg/kg/injection, schedule: Q04DX003 (ip), vehicle: saline): 102 % of control | T/C (dose: 300.0 mg/kg/injection, schedule: Q04DX003 (ip), vehicle: saline): 106 % of control | T/C (dose: 600.0 mg/kg/injection, schedule: Q04DX003 (ip), vehicle: saline): 110 % of control

CCCCNP1(NCCCC)=NP(NCCCC)(NCCCC)=NP(NCCCC)(NCCCC)=NP(NCCCC)(NCCCC)=N1
T/C (dose: 32.4 mg/kg/injection, schedule: Q04DX003 (ip), vehicle: saline with Tween-80): 116 % of control | T/C (dose: 54.0 mg/kg/injection, schedule: Q04DX003 (ip), vehicle: saline with Tween-80): 105 % of control and 98 % of control | T/C (dose: 75.0 mg/kg/injection, schedule: Q04DX003 (ip), vehicle: saline with Tween-80): 113 % of control | T/C (dose: 90.0 mg/kg/injection, schedule: Q04DX003 (ip), vehicle: saline with Tween-80): 105 % of control and 120 % of control

Source: PubChem BioAssay AID280 (DTP/NCI, 2004)
